Publication PMC12951562, “SH2scan: Mapping SH2 Domain-Ligand Binding Selectivity for Inhibitors and Degraders” (Journal of Medicinal Chemistry, 2026)
Substitutions are numbered along the chain they refer to. Non-standard residues stand in square brackets, D forms with d. Residues, ends and D or L forms follow the SMILES beside them. pY = N[C@@H](Cc1ccc(OP(=O)(O)O)cc1)C(=O)O

Experiments:
Assay in all cases: biochemical
Format in all cases: binding
PIK3R1(SH2dom.C-term.) = target: T1, PIK3R1(SH2dom.C-term.) (Homo sapiens, UniProt P27986)
T1 construct: SH2dom.C-term. denotes SH2 domain closest to C-terminus of protein; made in house; host or cells: HEK293 (transient transfection, unpurified extract)

PIK3R2(SH2dom.C-term.) = target: T2, PIK3R2(SH2dom.C-term.) (Homo sapiens, UniProt O00459)
T2 construct: SH2dom.C-term. denotes SH2 domain closest to C-terminus of protein; made in house; host or cells: HEK293 (transient transfection, unpurified extract)
T2 sequence (O00459 622-716 limits assumed): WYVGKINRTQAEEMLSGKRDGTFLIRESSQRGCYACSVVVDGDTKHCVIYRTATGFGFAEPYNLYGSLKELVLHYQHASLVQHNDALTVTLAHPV

PIK3R3(SH2dom.C-term.) = target: T3, PIK3R3(SH2dom.C-term.) (Homo sapiens, UniProt Q92569)
T3 construct: SH2dom.C-term. denotes SH2 domain closest to C-terminus of protein; made in house; host or cells: HEK293 (transient transfection, unpurified extract)

PLCG1(SH2dom.N-term.) = target: T4, PLCG1(SH2dom.N-term.) (Homo sapiens, UniProt P19174)
T4 construct: SH2dom.N-term. denotes SH2 domain closest to N-terminus of protein; made in house; host or cells: HEK293 (transient transfection, unpurified extract)
T4 sequence (P19174 550-657 limits assumed): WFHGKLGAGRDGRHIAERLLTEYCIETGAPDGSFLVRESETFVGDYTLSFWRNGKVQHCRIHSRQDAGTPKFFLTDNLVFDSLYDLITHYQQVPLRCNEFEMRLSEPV

FER = target: T5, FER (Homo sapiens, UniProt P16591)
T5 construct: the DNA-tagged SH2 domain concentrations used in this study were <0.1 nM; made in house; host or cells: HEK293 (transient transfection; unpurified extract)

STAT5B(N642H) = target: T6, STAT5B(N642H) (Homo sapiens, UniProt P51692, N642H)
T6 construct: made in house; host or cells: HEK293 (transient transfection), unpurified extract
T6 sequence (P51692 1-787 N642H): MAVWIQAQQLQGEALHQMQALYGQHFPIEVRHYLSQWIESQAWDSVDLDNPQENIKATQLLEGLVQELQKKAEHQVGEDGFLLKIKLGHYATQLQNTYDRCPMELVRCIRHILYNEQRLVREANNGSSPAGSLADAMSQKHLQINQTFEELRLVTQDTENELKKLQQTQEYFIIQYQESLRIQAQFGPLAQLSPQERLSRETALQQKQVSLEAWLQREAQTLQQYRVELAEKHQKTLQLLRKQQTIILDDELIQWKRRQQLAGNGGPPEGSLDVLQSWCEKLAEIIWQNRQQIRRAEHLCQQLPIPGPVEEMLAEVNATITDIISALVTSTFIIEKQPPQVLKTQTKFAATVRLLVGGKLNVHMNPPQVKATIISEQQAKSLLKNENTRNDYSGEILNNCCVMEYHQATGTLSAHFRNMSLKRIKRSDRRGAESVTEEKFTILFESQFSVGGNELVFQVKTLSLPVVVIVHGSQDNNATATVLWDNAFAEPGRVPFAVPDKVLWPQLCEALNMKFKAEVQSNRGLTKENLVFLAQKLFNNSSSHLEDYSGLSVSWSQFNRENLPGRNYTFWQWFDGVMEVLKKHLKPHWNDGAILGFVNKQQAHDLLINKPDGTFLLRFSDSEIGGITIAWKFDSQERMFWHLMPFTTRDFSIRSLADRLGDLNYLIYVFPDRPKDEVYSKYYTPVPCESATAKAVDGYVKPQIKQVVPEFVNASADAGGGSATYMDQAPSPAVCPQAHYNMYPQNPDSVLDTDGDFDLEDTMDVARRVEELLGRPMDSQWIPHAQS

STAT5B = target: T7, STAT5B (Homo sapiens, UniProt P51692)
T7 construct: made in house; host or cells: HEK293 (transient transfection), unpurified extract
T7 sequence (P51692 1-787): T6 sequence (P51692 1-787 N642H) with H642N

LNK (SH2B3) = target: T8, LNK (SH2B3) (Homo sapiens, UniProt Q9UQQ2)
T8 construct: the DNA-tagged SH2 domain concentrations used in this study were <0.1 nM; made in house; host or cells: HEK293 (transient transfection, unpurified extract)

STAT6 = target: T9, STAT6 (Homo sapiens, UniProt P42226)
T9 construct: made in house; host or cells: HEK293 (transient transfection), unpurified extract
T9 sequence (P42226 1-847): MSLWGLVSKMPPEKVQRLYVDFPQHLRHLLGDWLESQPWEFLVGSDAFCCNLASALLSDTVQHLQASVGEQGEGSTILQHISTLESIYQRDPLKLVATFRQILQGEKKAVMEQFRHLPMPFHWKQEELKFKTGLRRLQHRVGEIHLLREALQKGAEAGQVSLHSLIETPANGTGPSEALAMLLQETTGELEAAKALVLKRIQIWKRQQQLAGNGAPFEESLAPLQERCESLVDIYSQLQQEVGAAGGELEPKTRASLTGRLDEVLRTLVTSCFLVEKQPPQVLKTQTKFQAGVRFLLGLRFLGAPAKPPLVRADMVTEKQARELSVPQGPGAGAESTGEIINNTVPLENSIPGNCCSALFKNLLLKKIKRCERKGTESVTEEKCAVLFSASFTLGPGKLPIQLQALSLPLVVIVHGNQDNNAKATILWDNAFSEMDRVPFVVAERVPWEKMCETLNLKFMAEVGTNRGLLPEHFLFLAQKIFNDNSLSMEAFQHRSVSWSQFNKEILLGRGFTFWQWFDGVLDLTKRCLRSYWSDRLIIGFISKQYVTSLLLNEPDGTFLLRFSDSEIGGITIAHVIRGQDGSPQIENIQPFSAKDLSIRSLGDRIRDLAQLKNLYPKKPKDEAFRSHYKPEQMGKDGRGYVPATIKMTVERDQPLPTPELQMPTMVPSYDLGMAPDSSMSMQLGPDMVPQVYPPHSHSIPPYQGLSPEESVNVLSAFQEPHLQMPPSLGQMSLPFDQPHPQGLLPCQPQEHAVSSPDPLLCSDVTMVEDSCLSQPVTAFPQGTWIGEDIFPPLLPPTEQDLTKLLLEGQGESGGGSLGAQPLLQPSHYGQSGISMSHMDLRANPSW

T5 sequence (P16591 460-550 limits assumed): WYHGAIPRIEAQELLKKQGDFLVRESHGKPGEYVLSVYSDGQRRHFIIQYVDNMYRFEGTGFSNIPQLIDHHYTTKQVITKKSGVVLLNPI
T1 sequence (P27986 624-718 limits assumed): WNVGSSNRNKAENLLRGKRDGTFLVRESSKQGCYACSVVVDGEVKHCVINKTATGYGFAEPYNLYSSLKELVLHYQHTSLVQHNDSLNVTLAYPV
T8 sequence (Q9UQQ2 364-462 limits assumed): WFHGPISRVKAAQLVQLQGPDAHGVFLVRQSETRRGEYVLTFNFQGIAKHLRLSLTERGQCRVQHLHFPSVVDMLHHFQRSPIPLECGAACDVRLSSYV

`CSCC[C@H](NC(=O)[C@@H]1CCCN1C(=O)[C@@H](NC(=O)[C@H](Cc1ccc(OP(=O)(O)O)cc1)NC(=O)CNC(C)=O)C(C)C)C(=O)N[C@@H](CC(C)C)C(=O)O` [Ac-GpYVPML-OH] (Ac-G[pY]VPML-OH) was tested, and the Kd (PIK3R1(SH2dom.C-term.)) was 4.24 ± 0.48 nM, the Kd (PIK3R2(SH2dom.C-term.)) was 4.82 ± 1.95 nM and the Kd (PIK3R3(SH2dom.C-term.)) was 2.27 ± 0.32 nM.
With `CSCC[C@H](NC(=O)[C@H](CO)NC(=O)[C@H](CC(C)C)NC(=O)[C@H](CC(=O)O)NC(=O)[C@H](CC(C)C)NC(=O)[C@H](Cc1ccc(OP(=O)(O)O)cc1)NC(=O)[C@H](CCC(=O)O)NC(=O)[C@H](CCC(N)=O)NC(=O)[C@H](CC(N)=O)NC(=O)[C@H](CO)NC(=O)[C@@H](NC(C)=O)[C@@H](C)O)C(N)=O` [Ac-TSNQEpYLDLSM-NH2] (Ac-TSNQE[pY]LDLSM-NH2) the Kd (PLCG1(SH2dom.N-term.)) was 116 ± 6.69 nM.
For `CC(=O)N[C@@H](CC(=O)O)C(=O)N[C@@H](CCC(=O)O)C(=O)N[C@@H](Cc1ccc(OP(=O)(O)O)cc1)C(=O)N[C@@H](CCC(=O)O)C(=O)N[C@@H](CC(N)=O)C(=O)N[C@H](C(=O)N[C@@H](CC(=O)O)C(N)=O)C(C)C` [Ac-DEpYENVD-NH2] (Ac-DE[pY]ENVD-NH2), the Kd (FER) was 7770 ± 2130 nM.
For `CC(C)C[C@H](NC(=O)[C@H](Cc1c[nH]c2ccccc12)NC(=O)[C@H](CCCCN)NC(=O)[C@H](CC(=O)O)NC(=O)[C@H](CC(C)C)NC(=O)[C@@H](NC(=O)[C@H](CC(C)C)NC(=O)[C@H](Cc1ccc(OP(=O)(O)O)cc1)NC(=O)[C@@H](NC(=O)[C@H](CC(=O)O)NC(=O)[C@@H](N)CCC(N)=O)[C@@H](C)O)C(C)C)C(=O)O` (H-QDT[pY]LVLDKWL-OH), the Kd (STAT5B(N642H)) was 97.8 ± 43.3 nM and the Kd (STAT5B) was 1020 ± 179 nM.
In the case of `CC(=O)N[C@@H](CC(N)=O)C(=O)N[C@H](C(=O)NCC(=O)N[C@@H](CC(=O)O)C(=O)N[C@@H](Cc1ccc(OP(=O)(O)O)cc1)C(=O)N[C@@H](Cc1ccc(O)cc1)C(=O)N[C@@H](CC(=O)O)C(=O)N[C@@H](CC(C)C)C(=O)N[C@@H](Cc1ccc(O)cc1)C(=O)NCC(N)=O)[C@@H](C)O` [Ac-NTGDpYYDLYG-NH2] (Ac-NTGD[pY]YDLYG-NH2), the Kd (LNK (SH2B3)) is reported as 3220 ± 595 nM.
`CC[C@H](C)[C@H](NC(=O)[C@H](CC(C)C)NC(=O)[C@H](CC(=O)O)NC(=O)[C@H](CCC(N)=O)NC(=O)[C@H](Cc1ccccc1)NC(=O)[C@@H]1CCCN1C(=O)[C@H](CCCCN)NC(=O)[C@H](Cc1ccc(OP(=O)(O)O)cc1)NC(C)=O)C(N)=O` (Ac-[pY]KPFQDLI-NH2) was tested, and the Kd (STAT6) was 928 ± 249 nM.
